Experimental data reported in patent publication US11596639B2, “Substituted indole Mcl-1 inhibitors” (Vanderbilt University, priority 2016, dated 2023).
Read-outs that look alike come from different tables or passages of the source.

How the values were obtained:
[1] = biological target: Mcl-1 (Homo sapiens (Human), UniProt Q07820); experiment: Fluorescence polarization anisotropy (FPA) competition assay, FITC-Bak or FITC-Bim BH3 peptide; format: binding; conditions: read-out: Ki for Inhibition of Mcl-1 by FPA assay
[2] = system: H929 human cancer cell lines; experiment: Cellular viability / proliferation (Cell TiterGlo, 72 h); format: cell-based
Method in brief: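 Cells were seeded at 1,000 cells/well in medium with 10% FBS and dosed 24 h later with a 2-fold serial dilution of compound (top concentration 50 μM, final DMSO <1%).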

[3] = H929 cells, 72 h, Cell TiterGlo, 10% FBS, read-out: GI50 on cellular proliferation of H929 human cancer cell lines
[4] = Homo sapiens, NCI-H929, 72 h, read-out: GI50 on cellular proliferation of H929 human cancer cell lines, H929 cells, 72 h, Cell TiterGlo, 10% FBS

Mcl-1, sequence (Q07820 172-327): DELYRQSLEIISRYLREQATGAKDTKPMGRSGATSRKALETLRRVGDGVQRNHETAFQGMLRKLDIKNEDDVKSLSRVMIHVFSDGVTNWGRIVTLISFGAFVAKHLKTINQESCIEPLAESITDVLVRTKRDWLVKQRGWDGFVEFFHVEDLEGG

Compound	Ki [1] [nM]	GI50 [2, 3] [nM]	GI50 ([2]; read-out: GI50 on cellular proliferation of H929 human cancer cell lines, H929 cells, 72 h, Cell TiterGlo, 10% FBS) [nM]	GI50 [2, 4] [nM]
Cc1cc(OCCCc2c3n(c4c(-c5c(C)nn(C)c5C)c(Cl)ccc24)[C@H](C)CN(c2cc(OCC4CCN(C)C4)cc4c2cc(C(=O)O)n4C)C3=O)cc(C)c1Cl (some centres unmarked) [Example 331, 4-((M, R)-7-Chloro-10-(3-(4-chloro-3,5-dimethylphenoxy)propyl)-4-methyl-1-oxo-6-(1,3,5-trimethyl-1H-pyrazol-4-yl)-3,4-dihydropyrazino[1,2-a]indol-2(1H)-yl)-1-methyl-6-((1-methylpyrrolidin-3-yl)methoxy)-1H-indole-2-carboxylic acid]	1.1	2300		
Cc1cc(OCCCc2c3n(c4c(-c5c(C)nn(C)c5C)c(Cl)ccc24)[C@H](C)CN(c2cc(Cl)cc4cc(C(=O)O)oc24)C3=O)cc(C)c1Cl [Example 259, (R)-5-Chloro-7-(7-chloro-10-(3-(4-chloro-3,5-dimethylphenoxy)propyl)-4-methyl-1-oxo-6-(1,3,5-trimethyl-1H-pyrazol-4-yl)-3,4-dihydropyrazino[1,2-a]indol-2(1H)-yl)benzofuran-2-carboxylic acid]	< 1		3500	
Cc1cc(OCCCc2c3n(c4c(-c5c(C)nn(C)c5C)c(Cl)ccc24)[C@H](C)CN(c2nc(C(=O)O)c4ccccn24)C3=O)cc(C)c1Cl [Example 111, (R)-3-(7-chloro-10-(3-(4-chloro-3,5-dimethylphenoxy)propyl)-4-methyl-1-oxo-6-(1,3,5-trimethyl-1H-pyrazol-4-yl)-3,4-dihydropyrazino[1,2-a]indol-2(1H)-yl)imidazo[1,5-a]pyridine-1-carboxylic acid]	< 1			2600
Cc1cc(OCCCc2c3n(c4c(-c5c(C)nn(C)c5C)c(Cl)ccc24)[C@H](C)CN(c2cc(C(=O)O)cc4c2cnn4C)C3=O)cc(C)c1Cl [Example 84, (R)-4-(7-chloro-10-(3-(4-chloro-3,5-dimethylphenoxy)propyl)-4-methyl-1-oxo-6-(1,3,5-trimethyl-1H-pyrazol-4-yl)-3,4-dihydropyrazino[1,2-a]indol-2(1H)-yl)-1-methyl-1H-indazole-6-carboxylic acid]	< 1			1200
Cc1cc(OCCCc2c3n(c4c(-c5c(C)nn(C)c5C)c(Cl)ccc24)[C@H](C)CN(c2coc4ccccc24)C3=O)cc(C)c1Cl (single isomer, unassigned) [Example 237]	14			7600
Cc1cc(OCCCc2c3n(c4c(-c5c(C)nn(C)c5C)c(Cl)ccc24)[C@H](C)CN(c2ccc4cc(C(=O)O)n(C)c4c2)C3=O)cc(C)c1Cl [Example 110, (R)-6-(7-Chloro-10-(3-(4-chloro-3,5-dimethylphenoxy)propyl)-4-methyl-1-oxo-6-(1,3,5-trimethyl-1H-pyrazol-4-yl)-3,4-dihydropyrazino[1,2-a]indol-2(1H)-yl)-1-methyl-1H-indole-2-carboxylic acid]	< 1			790
Cc1cc(OCCCc2c3n(c4c(-c5c(C)nn(C)c5C)c(Cl)ccc24)[C@H](C)CN(c2cccc4c2cc(C(=O)O)n4Cc2ccccn2)C3=O)cc(C)c1Cl [Example 352, (R)-4-(7-chloro-10-(3-(4-chloro-3,5-dimethylphenoxy)propyl)-4-methyl-1-oxo-6-(1,3,5-trimethyl-1H-pyrazol-4-yl)-3,4-dihydropyrazino[1,2-a]indol-2(1H)-yl)-1-(pyridin-2-ylmethyl)-1H-indole-2-carboxylic acid]	2.8			5100
Cc1cc(OCCCc2c3n(c4c(-c5c(C)nn(C)c5C)c(Cl)ccc24)[C@H](C)CN(c2cc(OC(F)(F)F)cc4cc(C(=O)O)[nH]c24)C3=O)cc(C)c1Cl [Example 469, (R)-7-(7-Chloro-10-(3-(4-chloro-3,5-dimethylphenoxy)propyl)-4-methyl-1-oxo-6-(1,3,5-trimethyl-1H-pyrazol-4-yl)-3,4-dihydropyrazino[1,2-a]indol-2(1H)-yl)-5-(trifluoromethoxy)-1H-indole-2-carboxylic acid]	2.2			3300
CCn1cc2cc(C(=O)O)cc(N3CCCn4c(c(CCCOc5cc(C)c(Cl)c(C)c5)c5ccc(Cl)c(-c6c(C)nn(C)c6C)c54)C3=O)c2n1 [Example 124, 7-(8-chloro-11-(3-(4-chloro-3,5-dimethylphenoxy)propyl)-1-oxo-7-(1,3,5-trimethyl-1H-pyrazol-4-yl)-4,5-dihydro-1H-[1,4]diazepino[1,2-a]indol-2(3H)-yl)-2-ethyl-2H-indazole-5-carboxylic acid]	< 1			1900
Cc1cc(OCCCc2c3n(c4c(-c5c(C)nn(C)c5C)c(Cl)ccc24)CCCN(c2cc(C(=O)O)c4cn[nH]c4c2)C3=O)cc(C)c1Cl [Example 44, 6-[8-chloro-11-[3-(4-chloro-3,5-dimethyl-phenoxy)propyl]-1-oxo-7-(1,3,5-trimethylpyrazol-4-yl)-4,5-dihydro-3H-[1,4]diazepino[1,2-a]indol-2-yl]-1H-indazole-4-carboxylic acid]	< 1			14000
Cc1cc(OCCCc2c3n(c4c(-c5c(C)nn(C)c5C)c(Cl)ccc24)[C@H](C)CN(c2cn(C)c4ccc(-c5nnn(C)n5)cc24)C3=O)cc(C)c1Cl [Example 350, (R)-7-Chloro-10-(3-(4-chloro-3,5-dimethylphenoxy)propyl)-4-methyl-2-(1-methyl-5-(2-methyl-2H-tetrazol-5-yl)-1H-indol-3-yl)-6-(1,3,5-trimethyl-1H-pyrazol-4-yl)-3,4-dihydropyrazino[1,2-a]indol-1(2H)-one]	< 1			300
Cc1cc(OCCCc2c3n(c4c(-c5c(C)nn(C)c5C)c(Cl)ccc24)[C@H](C)CN(c2cn(C)c4ccc(C5=NCCO5)cc24)C3=O)cc(C)c1Cl [Example 428, (R)-7-Chloro-10-(3-(4-chloro-3,5-dimethylphenoxy)propyl)-2-(5-(4,5-dihydrooxazol-2-yl)-1-methyl-1H-indol-3-yl)-4-methyl-6-(1,3,5-trimethyl-1H-pyrazol-4-yl)-3,4-dihydropyrazino[1,2-a]indol-1(2H)-one]	2			920
Cc1cc(OCCCc2c3n(c4c(-c5c(C)ncnc5C)c(Cl)ccc24)CCCN(c2cccc4c(C(=O)O)cccc24)C3=O)cc(C)c1Cl [Example 151, 5-[8-Chloro-11-[3-(4-chloro-3,5-dimethyl-phenoxy)propyl]-7-(4,6-dimethylpyrimidin-5-yl)-1-oxo-4,5-dihydro-3H-[1,4]diazepino[1,2-a]indol-2-yl]naphthalene-1-carboxylic acid]	< 1			2100
Cc1cc(OCCCc2c3n(c4c(-c5c(C)nn(C)c5C)c(Cl)ccc24)[C@H](C)CN(c2cccc4cc(C(=O)O)n(CC5(C)COC5)c24)C3=O)cc(C)c1Cl [Example 380, (R)-7-(7-chloro-10-(3-(4-chloro-3,5-dimethylphenoxy)propyl)-4-methyl-1-oxo-6-(1,3,5-trimethyl-1H-pyrazol-4-yl)-3,4-dihydropyrazino[1,2-a]indol-2(1H)-yl)-1-((3-methyloxetan-3-yl)methyl)-1H-indole-2-carboxylic acid]	7.9			2500
Cc1cc(OCCCc2c3n(c4c(-c5c(C)ncnc5C)c(Cl)ccc24)[C@H](C)CN(c2cccc4c2c(C(=O)O)cn4C)C3=O)cc(C)c1Cl [Example 252, 4-[(4R)-7-chloro-10-[3-(4-chloro-3,5-dimethyl-phenoxy)propyl]-6-(4,6-dimethylpyrimidin-5-yl)-4-methyl-1-oxo-3,4-dihydropyrazino[1,2-a]indol-2-yl]-1-methyl-indole-3-carboxylic acid]	1.3			2000
COCCOc1ccc(N2C[C@@H](C)n3c(c(CCCOc4cc(C)c(Cl)c(C)c4)c4ccc(Cl)c(-c5c(C)nn(C)c5C)c43)C2=O)c2cc(C(=O)O)n(C)c12 [Example 323, (M, R)-4-(7-Chloro-10-(3-(4-chloro-3,5-dimethylphenoxy)propyl)-4-methyl-1-oxo-6-(1,3,5-trimethyl-1H-pyrazol-4-yl)-3,4-dihydropyrazino[1,2-a]indol-2(1H)-yl)-7-(2-methoxyethoxy)-1-methyl-1H-indole-2-carboxylic acid]	< 1	1500		
COCCN1CCN(Cc2nc(C)c(-c3c(Cl)ccc4c(CCCOc5cc(C)c(Cl)c(C)c5)c5n(c34)[C@H](C)CN(c3cn(C)c4ccc(C(=O)O)cc34)C5=O)c(C)n2)CC1 [Example 439, (R)-3-(7-Chloro-10-(3-(4-chloro-3,5-dimethylphenoxy)propyl)-6-(2-((4-(2-methoxyethyl)piperazin-1-yl)methyl)-4,6-dimethylpyrimidin-5-yl)-4-methyl-1-oxo-34-dihydropyrazino[1,2-a]indol-2(1H)-yl)-1-methyl-1H-indole-5-carboxylic acid]	1.9	< 200		
Cc1cc(OCCCc2c3n(c4c(-c5c(C)nn(C)c5C)c(Cl)ccc24)CCCN(c2cc(C(=O)O)cc4cnn(C)c24)C3=O)cc(C)c1Cl [Example 123, 7-(8-Chloro-11-(3-(4-chloro-3,5-dimethylphenoxy)propyl)-1-oxo-7-(1,3,5-trimethyl-1H-pyrazol-4-yl)-4,5-dihydro-1H-[1,4]diazepino[1,2-a]indol-2(3H)-yl)-1-methyl-1H-indazole-5-carboxylic acid]	< 1			6900
Cc1cc(OCCCc2c3n(c4c(-c5c(C)nn(C)c5C)c(Cl)ccc24)[C@H](C)CN(c2cc4cc(C(=O)O)ccc4n2C)C3=O)cc(C)c1Cl [Example 174, 2-[(4R)-7-chloro-10-[3-(4-chloro-3,5-dimethyl-phenoxy)propyl]-4-methyl-1-oxo-6-(1,3,5-trimethylpyrazol-4-yl)-3,4-dihydropyrazino[1,2-a]indol-2-yl]-1-methyl-indole-5-carboxylic acid]	4.2			6300
